Measured values taken from US20250163057A1, “DCN-1 MODULATING COMPOUNDS AND METHODS OF USE THEREOF” (Cellarity, Inc., priority 2023, published 2025).
Read-outs that look alike come from different tables or passages of the source.

Target: DCN1 (DCUND1) protein PONY domain (Homo sapiens (Human), UniProt Q96GG9)
Assay: TR-FRET assay, DCN1 binding with FAM-labeled probe
Protocol: A TR-FRET assay was performed to evaluate the ability of the compounds to bind the DCN-1 protein.
The TR-FRET assay was designed following the Scott et al. protocol (Scott et al., Nat Chem Biol. 2017 August; 13(8): 850-857. Doi:10.1038/nchembio.2386). The recombinant form of the DCN1 (DCUND1) protein PONY domain was produced using an E. coli expression system at Viva Biotech (China). The DCN1 protein was biotinylated (EZ sulfo-NHS-LC-biotin; Thermofisher) for labeling with streptavidin terbium (Tb) cryptate in the reaction. The probe was changed to a non-covalent DCN1 inhibitor labeled with carboxyfluorescein (FAM; Zhou et al., Nat Commun. 2017; 8: 1150. Doi: 10.1038/s41467-017-01243-7). Buffer conditions were modified to enhance protein stability by exchanging Tween20 for TritonX and increasing NaCl to 200 mM. The compounds were screened against 5 nM DCN1 and 20 nM FAM-probe or 0.31 nM DCN1 and 900 nM total probe (100 nM FAM-labeled plus 800 nM unlabeled). The TR-FRET ratio between Tb-DCN1 and the FAM-labeled probe was measured in a 384-well opti-plate (Perkin Elmer) using a plate reader (BMG) at 1, 5, and 24 hrs after treatment with compound (final DMSO concentration of 0.1%).

[1] = 24 hr after treatment with compound, read-out: TR FRET IC50 24 hr
[2] = TR FRET IC50 1 hr (nM), 1 hr after treatment with compound

Chain of DCN1 (DCUND1) protein PONY domain (Q96GG9 60-248): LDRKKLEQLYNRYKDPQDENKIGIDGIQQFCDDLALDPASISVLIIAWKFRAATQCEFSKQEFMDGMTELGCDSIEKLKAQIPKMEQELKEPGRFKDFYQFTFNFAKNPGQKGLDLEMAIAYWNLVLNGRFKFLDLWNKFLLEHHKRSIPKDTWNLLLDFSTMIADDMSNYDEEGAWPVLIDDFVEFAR

SMILES | IC50 [1] [nM] | IC50 [2] [nM] | IC50 (read-out: TR FRET IC50 1 hr, 1 hr after treatment with compound) [nM]
CCN1C(=O)[C@@H](NC(=O)c2cccc(C(F)(F)F)c2)[C@@H](c2ccc(F)cc2)c2c(CN(C)C(=O)C(F)Cl)nn(-c3ccccc3)c21 (mixture of isomers) [Compound I-145] | 200 to 1000 | 200 to 1000 | –
C=C(C(=O)OC(C)(C)C)[C@@H](O)c1nn(-c2ccccc2)c2c1[C@H](c1ccc(F)cc1)[C@H](NC(=O)c1cccc(C(F)(F)F)c1)C(=O)N2CC (racemic) [Compound I-146, rac-tert-butyl 2-(((4R,5R)-7-ethyl-4-(4-fluorophenyl)-6-oxo-1-phenyl-5-(3-(trifluoromethyl)benzamido)-4,5,6,7-tetrahydro-1H-pyrazolo[3,4-b]pyridin-3-yl)(hydroxy)methyl)acrylate] | 200 to 1000 | 1000 to 3000 | –
CCN1C(=O)[C@@H](NC(=O)c2cccc(C(F)(F)F)c2)[C@@H](c2ccc(F)cc2)c2c(CNC(=O)/C=C/C(=O)NCCN(C)C)nn(-c3ccccc3)c21 (racemic) [Compound I-154, rac-N1-(2-(dimethylamino)ethyl)-N4-(((4R,5R)-7-ethyl-4-(4-fluorophenyl)-6-oxo-1-phenyl-5-(3-(trifluoromethyl)benzamido)-4,5,6,7-tetrahydro-1H-pyrazolo[3,4-b]pyridine-3-yl)methyl)fumaramide] | ≤ 200 | 200 to 1000 | –
CCN1C(=O)[C@@H](NC(=O)c2cccc(C(F)(F)F)c2)[C@@H](c2ccc(F)cc2)c2c(CNC(=O)/C(C)=C/C(=O)OC)nn(-c3ccccc3)c21 (racemic) [Compound I-155] | 200 to 1000 | 1000 to 3000 | –
C/C=C(\C)S(=O)(=O)NCc1nn(-c2ccccc2)c2c1[C@H](c1ccc(F)cc1)[C@H](NC(=O)c1cccc(C(F)(F)F)c1)C(=O)N2CC (racemic) [Compound I-159] | 200 to 1000 | 1000 to 3000 | –
CCN1C(=O)[C@H](NC(=O)c2cccc(C(F)(F)F)c2)[C@H](c2ccc(F)cc2)c2c([C@@H](C)N(C)C#N)nn(-c3ccccc3)c21 (relative stereo) [Compound I-79, N-((4R*,5R*)-7-ethyl-4-(4-fluorophenyl)-3-((R)-1-(N-methylcyanamido)ethyl)-6-oxo-1-phenyl-4,5,6,7-tetrahydro-1H-pyrazolo[3,4-b]pyridine-5-yl)-3-(trifluoromethyl)benzamide] | 1000 to 3000 | 1000 to 3000 | –
CCN1C(=O)[C@@H](NC(=O)c2cccc(C(F)(F)F)c2)[C@@H](c2ccc(F)cc2)c2c(CNC(=O)[C@H](C)C#N)nn(-c3ccccc3)c21 (relative stereo) [Compound I-85, N-((4RS,5RS)-3-(((S*)-2-cyanopropanamido)methyl)-7-ethyl-4-(4-fluorophenyl)-6-oxo-1-phenyl-4,5,6,7-tetrahydro-1H-pyrazolo[3,4-b]pyridin-5-yl)-3-(trifluoromethyl)benzamide] | 1000 to 3000 | 1000 to 3000 | –
CCN1C(=O)[C@@H](NC(=O)c2cccc(C(F)(F)F)c2)[C@@H](c2ccc(F)cc2)c2c(CNC(=O)[C@@H](C)C#N)nn(-c3ccccc3)c21 (relative stereo) [Compound I-158, N-((4RS,5RS)-3-(((R*)-2-cyanopropanamido)methyl)-7-ethyl-4-(4-fluorophenyl)-6-oxo-1-phenyl-4,5,6,7-tetrahydro-1H-pyrazolo[3,4-b]pyridin-5-yl)-3-(trifluoromethyl)benzamide] | 200 to 1000 | 200 to 1000 | –
CCN1C(=O)[C@H](NC(=O)c2cccc(C(F)(F)F)c2)[C@@H](c2ccc(F)cc2)c2c(CN(C)C#N)nn(-c3ccccc3)c21 (single isomer, unassigned) [Compound I-82] | 1000 to 3000 | 1000 to 3000 | –
CCN1C(=O)[C@@H](NC(=O)c2cccc(C(F)(F)F)c2)[C@H](c2ccc(F)cc2)c2c(CN(C)C#N)nn(-c3ccccc3)c21 (single isomer, unassigned) [Compound I-133] | 200 to 1000 | 200 to 1000 | –
CCN1C(=O)[C@@H](NC(=O)c2cccc(C(F)(F)F)c2)[C@@H](c2ccc(F)cc2)c2c([C@@H](C)N(C)C#N)nn(-c3ccccc3)c21 [Compound I-44] | ≤ 200 | 200 to 1000 | –
C=C(COC)C(=O)NCc1nn(-c2ccccc2)c2c1[C@@H](c1ccc(F)cc1)[C@H](NC(=O)c1cccc(C(F)(F)F)c1)C(=O)N2CC [Compound I-109] | 200 to 1000 | 200 to 1000 | –
CCN1C(=O)[C@@H](NC(=O)c2cccc(C(F)(F)F)c2)[C@@H](C2CC2)c2c(CN(C)C#N)nn(-c3ccccc3)c21 [Compound I-111] | 200 to 1000 | 1000 to 3000 | –
C=C(COC)C(=O)NCc1nn(-c2ccccc2)c2c1[C@H](c1ccc(F)cc1)[C@H](NC(=O)c1cccc(C(F)(F)F)c1)C(=O)N2CC [Compound I-113] | 200 to 1000 | 200 to 1000 | –
CCN1C(=O)[C@@H](NC(=O)c2cccc(C(F)(F)F)c2)[C@@H](c2ccc(F)cc2)c2c(CNC(=O)C34CC3C4)nn(-c3ccccc3)c21 (stereo partly drawn) [Compound I-114, N-[[(4S, 5S)-7-ethyl-4-(4-fluorophenyl)-6-oxo-1-phenyl-5-[[3-(trifluoromethyl)benzoyl]amino]-4,5-dihydropyrazolo[3,4-b]pyridine-3-yl]methyl]bicyclo[1.1.0]butane-1-carboxamide] | 200 to 1000 | 200 to 1000 | –
CCN1C(=O)[C@@H](NC(=O)c2cccc(C(F)(F)F)c2)[C@@H](c2ccc(F)cc2)c2c(C/C=C/C(=O)NCCN(C)C)nn(-c3ccccc3)c21 [Compound I-118] | 200 to 1000 | 200 to 1000 | –
CCN1C(=O)[C@@H](NC(=O)c2cccc(C(F)(F)F)c2)[C@@H](c2ccc(F)cc2)c2c(CC/C=C/C(N)=O)nn(-c3ccccc3)c21 [Compound I-124] | 200 to 1000 | 200 to 1000 | –
CCN1C(=O)[C@@H](NC(=O)c2cccc(C(F)(F)F)c2)[C@@H](c2ccc(F)cc2)c2c([C@@H](O)CNC#N)nn(-c3ccccc3)c21 [Compound I-130] | 200 to 1000 | 200 to 1000 | –
CCN1C(=O)[C@@H](NC(=O)c2cccc(C(F)(F)F)c2)[C@@H](c2ccc(F)cc2)c2c(CNC(=O)C3=C(C(=O)OC)CCC3)nn(-c3ccccc3)c21 [Compound I-135] | 200 to 1000 | 200 to 1000 | –
C[C@@H](NC#N)c1nn(-c2ccccc2)c2c1[C@H](c1ccc(F)cc1)[C@H](NC(=O)c1cccc(C(F)(F)F)c1)C(=O)N2CCOP(=O)(O)O [Compound I-162] | ≤ 200 | – | ≤ 200
CCN1C(=O)[C@@H](NC(=O)C2(c3ccccc3)CC2)[C@@H](C2CC2)c2c(C(=O)N3[C@H](C#N)C[C@H]4C[C@H]43)nn(C3CCOCC3)c21 [Compound I-419] | 1000 to 3000 | 1000 to 3000 | –
CCN1C(=O)[C@@H](NC(=O)C2CCN(C)CC2)[C@@H](C2CC2)c2c(C(=O)N3[C@H](C#N)C[C@H]4C[C@H]43)nn(C3CCOCC3)c21 [Compound I-423] | 1000 to 3000 | 1000 to 3000 | –
CCN1C(=O)[C@@H](NC(=O)CC(C)(C)C)[C@@H](C2CC2)c2c(C(=O)N3[C@H](C#N)C[C@H]4C[C@H]43)nn(C3CCOCC3)c21 [Compound I-424] | 1000 to 3000 | 1000 to 3000 | –
CCN1C(=O)[C@@H](NC(=O)CCc2cnn(C)c2)[C@@H](C2CC2)c2c(C(=O)N3[C@H](C#N)C[C@H]4C[C@H]43)nn(C3CCOCC3)c21 [Compound I-433] | 1000 to 3000 | 1000 to 3000 | –
CCN1C(=O)[C@@H](NC(=O)C2CC(=O)N(Cc3ccccc3)C2)[C@@H](C2CC2)c2c(C(=O)N3[C@H](C#N)C[C@H]4C[C@H]43)nn(C3CCOCC3)c21 (some centres unmarked) [Compound I-435] | 1000 to 3000 | 1000 to 3000 | –
